Assay type in all cases: functional
Test [1] concerns Nakataea oryzae. The experiment in a line: Fungicidal activity against Magnaporthe salvinii by agar dilution method.
In test [2] the test system is Pyricularia oryzae. The experiment in a line: Fungicidal activity against Magnaporthe oryzae by agar dilution method.
In test [3] the test system is Pyricularia oryzae. The experiment in a line: Fungicidal activity against Magnaporthe oryzae in rice seedlings assessed as control of rice blast at 500 ppm by curative foliar treatment.
The test system of test [4] is Pyricularia oryzae. The experiment in a line: Fungicidal activity against Magnaporthe oryzae in rice seedlings assessed as control of rice blast at 500 ppm by preventive foliar treatment.

≈ marks a conversion by molar mass, not a printed value.

As for `CCNc1nc(NCC)nc(-n2nc(C)cc2C)n1`, the MIC is 25 µg/mL (≈ 95.7 µM) in test [1] and 50 µg/mL (≈ 191 µM) in test [2]. The results for the Activity in test [3] and in test [4] were 81% and 100%, respectively.

Take `Cc1cc(C)n(C2=NS(=O)(=O)c3ccccc32)n1`: the MIC in test [1] and in test [2] was greater than 100 µg/mL in each case. The Activity in test [3] stood at 0%; in test [4], 31%.

Regarding `Cc1cc(C)n(-c2nc3ccccc3s2)n1`, the minimum inhibitory concentration (MIC) in test [1] and in test [2] was greater than 100 µg/mL in each case. The figures for the Activity in test [3] and in test [4] were 31% and 40%, respectively.

`Cc1cc(C)n(-c2nc3ccccc3c(=O)[nH]2)n1`: the MIC in test [2] came out at 0.78 µg/mL (≈ 3.25 µM). In addition, the Activity in test [3] stood at 85%; in test [4], 40%.

With `Cc1cc(C)n(-c2ccc(O)nn2)n1`, the MIC was greater than 100 µg/mL in test [1] and 100 µg/mL (≈ 526 µM) in test [2]. The values for the Activity in test [3] and in test [4] were 0% and 29%, respectively.

With `Cc1cc(C)n(-c2ccc(Cl)nn2)n1`, the MIC in test [1] and in test [2] was greater than 100 µg/mL in each case. Further, the Activity in test [3] and in test [4] was 31% in each case.

For `Cc1cc(C)n(-c2ncncn2)n1`, the MIC in test [1] and in test [2] was greater than 100 µg/mL in each case. For the same molecule, the Activity is listed as 50% in test [3] and 59% in test [4].

`Cc1cc(C)n(-c2nc(O)nc(O)n2)n1`: the MIC in test [1] and in test [2] was greater than 100 µg/mL each time. In addition, the Activity in test [3] was found to be 31%.

On to `Cc1cc(C)n(-c2nc(Cl)nc(Cl)n2)n1`, for which the MIC in test [1] and in test [2] was greater than 100 µg/mL in each case. Also, the Activity in test [3] and in test [4] was 100% each time.

On to `Cc1cc(C)n(-c2nc3ccccc3[nH]2)n1`, for which the MIC in test [1] was 25 µg/mL (≈ 118 µM); in test [2] it was 100 µg/mL (≈ 471 µM). The Activity in test [3] stood at 0%.

For the molecule `Cc1cc(C)n(-c2nc(C)c(C)s2)n1`, the MIC in test [1] and in test [2] was greater than 100 µg/mL each time. Moreover, the Activity in test [3] was found to be 15%; in test [4], 0%.

Turning to `Cc1nc(-n2nc(C)c(Br)c2C)nc(O)c1Br`, the MIC in test [1] turned out to be 25 µg/mL (≈ 69.1 µM); in test [2], 50 µg/mL (≈ 138 µM). The Activity in test [3] is recorded as 31%; in test [4] it was 40%.

Take `Cc1cc(C)nc(-n2ccnc2)n1`: the MIC in test [1] and in test [2] was greater than 100 µg/mL in each case. Besides, the values for the Activity in test [3] and in test [4] were 0% and 51%, respectively.

For the molecule `Cc1cc(C)nc(-n2ccnc2C)n1`, the MIC in test [1] and in test [2] was greater than 100 µg/mL in each case. The Activity came out at 40% in test [3] and 59% in test [4].

Take `Cc1cc(C)nc(-n2cc(C)nc2C)n1`: the MIC in test [1] and in test [2] was greater than 100 µg/mL in each case. Also, the Activity in test [3] amounted to 0%; in test [4] it was 59%.

For the molecule `Cc1cc(C)nc(-n2cncn2)n1`, the MIC in test [1] and in test [2] was greater than 100 µg/mL throughout. Further, the Activity in test [3] is 0%; in test [4] it was 31%.

For the molecule `Cc1cc(C)nc(-n2nc(C)nc2C)n1`, the MIC in test [1] and in test [2] was greater than 100 µg/mL each time. Also, the Activity in test [3] is 0%; in test [4], 81%.

With `Cc1cc(C)n(-c2ccc3ccccc3n2)n1`, the values for the MIC in test [1] and in test [2] were 25 µg/mL (≈ 112 µM) and 100 µg/mL (≈ 448 µM), respectively. Further, the figures for the Activity in test [3] and in test [4] were 60% and 31%, respectively.

`Cc1cc(C)n(-c2cc(C)c3ccccc3n2)n1`: the MIC in test [1] and in test [2] was greater than 100 µg/mL in each case. Also, the Activity in test [3] is listed as 69%; in test [4] it was 81%.

As for `Cc1cc(C)nc(-n2nc(C(F)(F)F)cc2C(F)(F)F)n1`, the MIC in test [1] and in test [2] was greater than 100 µg/mL throughout. The Activity in test [3] is 31%; in test [4], 51%.

On to `Cc1cc(C)nc(-n2nc(C(F)(F)F)cc2-c2ccccc2)n1`, for which the MIC in test [1] was greater than 100 µg/mL; in test [2], 100 µg/mL (≈ 314 µM). Besides, the Activity came out at 53% in test [3] and 74% in test [4].

As to `CCOC(=O)c1cc(C)nn1-c1nc(C)cc(C)n1`, the MIC in test [1] and in test [2] was greater than 100 µg/mL in each case. The Activity in test [3] and in test [4] was 0% each time.

For the molecule `CCOC(=O)c1c(C)nn(-c2nc(C)cc(C)n2)c1C`, the MIC in test [1] and in test [2] was greater than 100 µg/mL throughout. The Activity in test [3] was 85%; in test [4], 69%.

As to `CC(=O)c1c(C)nn(-c2nc(C)cc(C)n2)c1C`, the MIC in test [1] and in test [2] was greater than 100 µg/mL throughout. Also, the results for the Activity in test [3] and in test [4] were 84% and 40%, respectively.

With `Cc1cc(C)nc(-n2nc(C)c(Cl)c2C)n1`, the MIC in test [1] and in test [2] was 50 µg/mL (≈ 211 µM) throughout. The Activity is on record as 99% in test [3] and 29% in test [4].

Regarding `Cc1cc(C)nc(-n2nc(C)c(Br)c2C)n1`, the MIC in test [1] and in test [2] was 50 µg/mL (≈ 178 µM) each time. Moreover, the Activity in test [3] worked out at 96%; in test [4], 65%.

For `Cc1cc(C)n(-c2nc(C)c(Cl)c(C)n2)n1`, the MIC in test [1] stood at 25 µg/mL (≈ 106 µM); in test [2], 50 µg/mL (≈ 211 µM). The Activity in test [3] worked out at 100%; in test [4], 94%.

In the case of `Cc1cc(C)nc(-n2ccc(C)n2)n1`, the MIC in test [1] and in test [2] was greater than 100 µg/mL throughout. Also, the Activity in test [3] and in test [4] was 69% in each case.

`Cc1cc(C)nc(-n2cccn2)n1`: the MIC in test [1] and in test [2] was greater than 100 µg/mL in each case. Further, the Activity in test [3] came to 40%; in test [4] it was 41%.

Turning to `COc1cc(C)nn1-c1nc(C)cc(C)n1`, the MIC in test [1] and in test [2] was greater than 100 µg/mL throughout. The Activity in test [3] and in test [4] was 40% each time.

Take `COc1cc(C)nc(-n2nc(C)cc2C)n1`: the figures for the MIC in test [1] and in test [2] were 100 µg/mL (≈ 458 µM) and 50 µg/mL (≈ 229 µM), respectively. Moreover, the Activity in test [3] amounted to 96%; in test [4] it was 81%.

Turning to `Cc1cc(C)nc(-n2nc(C(C)(C)C)cc2C(C)(C)C)n1`, the MIC in test [1] and in test [2] was greater than 100 µg/mL throughout. Besides, the Activity is recorded as 89% in test [3] and 69% in test [4].

For the molecule `Cc1cc(C)nc(-n2nc(C)cc2-c2ccccc2)n1`, in test [2], it took 100 µg/mL (≈ 378 µM) to inhibit growth (MIC). Moreover, the results for the Activity in test [3] and in test [4] were 27% and 67%, respectively.

Consider `Cc1cc(C)nc(-n2nc(-c3ccccc3)cc2-c2ccccc2)n1`, for which the MIC in test [1] and in test [2] was greater than 100 µg/mL in each case. Besides, the Activity in test [3] came out at 40%; in test [4], 31%.

For `Cc1cc(C)nc(-n2nc(C)cc2C(F)(F)F)n1`, the MIC in test [1] and in test [2] was greater than 100 µg/mL throughout. Also, the figures for the Activity in test [3] and in test [4] were 0% and 53%, respectively.

On to `Cc1cc(C)nc(-n2[nH]c(C)cc2=O)n1`, for which the MIC in test [1] and in test [2] was greater than 100 µg/mL throughout. Also, the Activity in test [3] is given as 0%; in test [4], 31%.

For the molecule `COc1cc(C)nc(-n2nc(C)cc2OC)n1` [EPIRIZOLE], the MIC in test [1] and in test [2] was greater than 100 µg/mL in each case. Also, the Activity in test [3] is on record as 89%.

The record behind these values is ChEMBL document CHEMBL3045726, “Fungicidal Activity of Pyrazolylpyrimidines” (1990).
